Measurements as given in ChEMBL document CHEMBL5500393, “Discovery and Optimization of Novel SaFabI Inhibitors as Specific Therapeutic Agents for MRSA Infection” (J Med Chem, 2024).

Assays:
[1] = molecular target: T1, Enoyl-[acyl-carrier-protein] reductase [NADPH] FabI (Staphylococcus aureus) (UniProt Q6GI75); test: Inhibition of N-terminal his 6 tagged Staphylococcus aureus Fabi (1 to […] residues) expressed in Escherichia coli BL21 at 10 uM incubated for 30 mins in presence of NADPH by fluorescence based microplate reader analysis relative to control
T1 sequence (whole entry): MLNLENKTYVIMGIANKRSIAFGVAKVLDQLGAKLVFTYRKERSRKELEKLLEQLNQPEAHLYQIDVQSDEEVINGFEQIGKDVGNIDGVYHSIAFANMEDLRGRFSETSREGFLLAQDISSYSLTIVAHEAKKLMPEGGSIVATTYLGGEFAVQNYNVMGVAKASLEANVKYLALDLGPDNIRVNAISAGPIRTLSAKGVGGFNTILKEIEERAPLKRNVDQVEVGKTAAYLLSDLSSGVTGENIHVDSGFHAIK

[2] = molecular target: T1, Enoyl-[acyl-carrier-protein] reductase [NADPH] FabI (Staphylococcus aureus); test: Inhibition of N-terminal his 6 tagged Staphylococcus aureus Fabi (1 to […] residues) expressed in Escherichia coli BL21 at 1 uM incubated for 30 mins in presence of NADPH by fluorescence based microplate reader analysis relative to control
[3] = test system: Staphylococcus aureus; test: Antimicrobial activity against […] Staphylococcus aureus ATCC33591 measured after 24 hrs by CLSI protocol based microdilution method; assay type: functional
[4] = test system: Staphylococcus aureus; test: Antimicrobial activity against […] Staphylococcus aureus ATCC43300 measured after 24 hrs by CLSI protocol based microdilution method; assay type: functional
[5] = test system: Staphylococcus aureus; test: Antimicrobial activity against […] Staphylococcus aureus USA300 measured after 24 hrs by CLSI protocol based microdilution method; assay type: functional
[6] = test system: Staphylococcus aureus; test: Antimicrobial activity against […] Staphylococcus aureus NRS271 measured after 24 hrs by CLSI protocol based microdilution method; assay type: functional
[7] = test system: Staphylococcus aureus; test: Antimicrobial activity against methicillin-susceptible Staphylococcus aureus ATCC29213 measured after 24 hrs by CLSI protocol based microdilution method; assay type: functional
[8] = test system: Staphylococcus aureus; test: Antimicrobial activity against methicillin-susceptible Staphylococcus aureus ATCC25923 measured after 24 hrs by CLSI protocol based microdilution method; assay type: functional
[9] = test system: Enterococcus faecium; test: Antimicrobial activity against Enterococcus faecium ATCC19434 measured after 24 hrs by CLSI protocol based microdilution method; assay type: functional
[10] = test system: Enterococcus faecalis; test: Antimicrobial activity against Enterococcus faecalis ATCC29212 measured after 24 hrs by CLSI protocol based microdilution method; assay type: functional
[11] = test system: Pseudomonas aeruginosa; test: Antimicrobial activity against Pseudomonas aeruginosa PAO1 measured after 24 hrs by CLSI protocol based microdilution method; assay type: functional
[12] = test system: Escherichia coli; test: Antimicrobial activity against Escherichia coli ATCC25922 measured after 24 hrs by CLSI protocol based microdilution method; assay type: functional
[13] = test system: Acinetobacter baumannii; test: Antimicrobial activity against Acinetobacter baumannii ATCC19606 measured after 24 hrs by CLSI protocol based microdilution method; assay type: functional
[14] = test system: Candida albicans; test: Antimicrobial activity against Candida albicans SC5314 measured after 48 hrs by CLSI protocol based microdilution method; assay type: functional

| SMILES | inhibition [1] [%] | inhibition [2] [%] | MIC [3] [µg/mL] | MIC [4] [µg/mL] | MIC [5] [µg/mL] | MIC [6] [µg/mL] | MIC [7] [µg/mL] | MIC [8] [µg/mL] | MIC [9] [µg/mL] | MIC [10] [µg/mL] | MIC [11] [µg/mL] | MIC [12] [µg/mL] | MIC [13] [µg/mL] | MIC [14] [µg/mL] |
| --- | --- | --- | --- | --- | --- | --- | --- | --- | --- | --- | --- | --- | --- | --- |
| Cc1cccc(NC(=O)c2nc3ccccc3n2C)c1C | 8.9 | 5.2 | > 32 | > 32 | > 32 | > 32 | > 32 | > 32 | > 32 | > 32 | > 32 | > 32 | > 32 | > 32 |
| Cc1c(Br)cccc1N1CC(c2nc3ccccc3[nH]2)CC1=O (stereo not given) | 36.6 | 11.6 | > 32 | > 32 | > 32 | > 32 | > 32 | > 32 | > 32 | > 32 | > 32 | > 32 | > 32 | > 32 |
| O=C1CC(c2nc3ccccc3[nH]2)CN1c1cccc2ccccc12 (stereo not given) | 15.4 | 3.2 | > 32 | > 32 | > 32 | > 32 | > 32 | > 32 | > 32 | > 32 | > 32 | > 32 | > 32 | > 32 |
| Cn1c(C(=O)NCCC(=O)NCc2ccccc2)nc2ccccc21 | 8.6 | 5.7 | > 32 | > 32 | > 32 | > 32 | > 32 | > 32 | > 32 | > 32 | > 32 | > 32 | > 32 | > 32 |
| Cc1c(Br)cccc1N1C[C@H](c2nc3ccccc3n2C)CC1=O |  |  | > 32 | > 32 | > 32 | > 32 | > 32 | > 32 |  |  |  |  |  |  |
| Cn1c(C(=O)NCc2ccccc2)nc2ccccc21 | 4.7 | 6.2 | > 32 | > 32 | > 32 | > 32 | > 32 | > 32 | > 32 | > 32 | > 32 | > 32 | > 32 | > 32 |
| O=c1sn(-c2cccc3ccccc23)c(=O)n1Cc1ccccc1 | > 70 |  |  |  |  |  |  |  |  |  |  |  |  |  |
| Cn1c(CCC(=O)NCCC(=O)NCc2ccccc2)nc2ccccc21 | 24.7 | 7.5 | > 32 | > 32 | > 32 | > 32 | > 32 | > 32 | > 32 | > 32 | > 32 | > 32 | > 32 | > 32 |
| Oc1ccc2ccccc2c1SSc1c(O)ccc2ccccc12 | > 70 |  |  |  |  |  |  |  |  |  |  |  |  |  |
| Cc1cccc(N2CCC(c3nc4ccccc4n3C)C2)c1C (stereo not given) | 6.2 | 5.4 | > 32 | > 32 | > 32 | > 32 | > 32 | > 32 | > 32 | > 32 | > 32 | > 32 | > 32 | > 32 |
| Cc1c(N)cccc1N1CC(c2nc3ccccc3n2C)CC1=O (stereo not given) | 50.2 | 6.1 | > 32 | > 32 | > 32 | > 32 | > 32 | > 32 | > 32 | > 32 | > 32 | > 32 | > 32 | > 32 |
| Cc1cccc(NC(=O)c2cccc(NC(=O)c3nc4ccccc4n3C)c2)c1C | 5 | 3.7 | > 32 | > 32 | > 32 | > 32 | > 32 | > 32 | > 32 | > 32 | > 32 | > 32 | > 32 | > 32 |
| O=C1C=CC(=O)c2ccccc21 | > 70 |  |  |  |  |  |  |  |  |  |  |  |  |  |
